The term IC50 denotes the concentration needed to halve the response being measured. Usually inhibition stands for how much of the control response was suppressed. Broadly, the EC50 is the concentration needed to bring the measured effect to its halfway point.

The structures appear in SMILES notation. The source made the active and inactive calls. The calls are words filed in the database; no cut-off is given here. Some results are limits rather than exact numbers.

Series [1] has as its target T1, Cytochrome P450 1A2 (Homo sapiens, UniProt P05177).
T1 sequence (P05177 whole entry): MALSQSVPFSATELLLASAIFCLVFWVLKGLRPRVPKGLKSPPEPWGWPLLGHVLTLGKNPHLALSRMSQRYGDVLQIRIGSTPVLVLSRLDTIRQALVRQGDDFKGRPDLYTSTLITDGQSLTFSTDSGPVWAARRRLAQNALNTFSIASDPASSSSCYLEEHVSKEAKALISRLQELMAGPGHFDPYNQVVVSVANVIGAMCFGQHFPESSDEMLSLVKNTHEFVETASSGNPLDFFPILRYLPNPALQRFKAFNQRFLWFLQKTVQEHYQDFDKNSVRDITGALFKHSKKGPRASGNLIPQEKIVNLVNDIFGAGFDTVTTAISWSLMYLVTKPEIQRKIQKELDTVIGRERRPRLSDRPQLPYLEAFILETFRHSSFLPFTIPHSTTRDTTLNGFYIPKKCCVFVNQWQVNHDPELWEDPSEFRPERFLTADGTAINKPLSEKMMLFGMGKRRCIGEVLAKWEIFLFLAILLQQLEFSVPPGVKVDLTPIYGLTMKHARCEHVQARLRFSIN
As to the kind of experiment: Inhibition of CYP1A2 (unknown origin). The class given is ADME.

A short description of series [2]: Metabolic stability in rat liver microsomes assessed as compound remaining after 30 mins. In kind it is ADME, microsome. Conditions: read-out: Stability. (In general: Liver microsomes are vesicles of endoplasmic reticulum, rich in cytochrome P450 enzymes.)
For series [3], the target named is Cytochrome P450 3A4 (Homo sapiens, UniProt P08684). As to the kind of experiment: Inhibition of CYP3A4 (unknown origin). The class given is ADME.
Series [4] has as its system Mus musculus. Briefly: Antidiabetic activity in C57BL/6 mouse assessed as decrease in plasma glucose AUC at 30 mg/kg, po pretreated for 30 mins followed by glucose challenge measured up to 120 mins by oGTT assay. The class given is functional, organism-based.
Series [5] concerns the target Cytochrome P450 2D6 (Homo sapiens, UniProt P10635). As to the kind of experiment: Inhibition of CYP2D6 (unknown origin). The class given is ADME.
Series [6] in a line: Metabolic stability in human liver microsomes assessed as compound remaining after 30 mins. In kind it is ADME, microsome. Particulars: read-out: Stability.
The target of series [7] is T2, Cytochrome P450 2A6 (Homo sapiens, UniProt P11509).
T2 sequence (P11509 whole entry): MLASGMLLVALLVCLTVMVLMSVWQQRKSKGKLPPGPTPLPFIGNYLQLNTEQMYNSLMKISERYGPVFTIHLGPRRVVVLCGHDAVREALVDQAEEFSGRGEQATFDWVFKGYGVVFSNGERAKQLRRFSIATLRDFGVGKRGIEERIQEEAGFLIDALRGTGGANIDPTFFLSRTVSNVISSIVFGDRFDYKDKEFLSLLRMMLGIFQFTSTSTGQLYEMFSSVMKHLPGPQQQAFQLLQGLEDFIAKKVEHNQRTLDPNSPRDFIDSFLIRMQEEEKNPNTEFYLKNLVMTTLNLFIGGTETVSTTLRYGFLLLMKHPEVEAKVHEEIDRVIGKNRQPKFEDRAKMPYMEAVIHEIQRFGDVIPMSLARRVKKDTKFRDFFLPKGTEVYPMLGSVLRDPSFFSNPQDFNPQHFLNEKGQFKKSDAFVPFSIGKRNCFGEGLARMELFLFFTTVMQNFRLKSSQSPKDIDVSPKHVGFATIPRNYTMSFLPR
Briefly: Inhibition of CYP2A6 (unknown origin). The class given is ADME.

The test system of series [8] is HFL1. Briefly: Cytotoxicity against HFL1 cells. Particulars: Homo sapiens. In kind it is cell-based.
Series [9] has as its system NIH3T3. As to the kind of experiment: Cytotoxicity against mouse NIH/3T3 cells. The class given is cell-based.
For series [10], the system named is L929. As to the kind of experiment: Cytotoxicity against mouse L929 cells. The class given is cell-based.
The target in series [11] is hERG (KCNH2) (Homo sapiens, UniProt Q12809). As to the kind of experiment: Inhibition of human ERG at 10 uM.
Series [12] concerns the target Cytochrome P450 2C19 (Homo sapiens, UniProt P33261). Briefly: Inhibition of CYP2C19 (unknown origin). The class given is ADME.
Series [13] concerns the target T3, Glucose-dependent insulinotropic receptor (Homo sapiens, UniProt Q8TDV5).
T3 sequence (Q8TDV5 whole entry): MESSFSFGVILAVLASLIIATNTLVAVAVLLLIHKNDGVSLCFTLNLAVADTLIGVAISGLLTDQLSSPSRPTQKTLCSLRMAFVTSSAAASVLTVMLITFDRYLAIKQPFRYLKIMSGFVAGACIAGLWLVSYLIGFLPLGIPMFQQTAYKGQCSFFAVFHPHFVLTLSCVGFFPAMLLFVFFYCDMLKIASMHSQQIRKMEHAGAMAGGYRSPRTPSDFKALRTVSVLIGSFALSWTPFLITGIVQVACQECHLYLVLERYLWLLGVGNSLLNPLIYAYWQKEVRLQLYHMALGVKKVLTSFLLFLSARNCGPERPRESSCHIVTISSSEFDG
As to the kind of experiment: Agonist activity at human GPR119 expressed in CHOK1 cells co-expressing CRE-luciferase after 6 hrs by luciferase reporter gene assay. In kind it is functional, cell-based. (Reporter assays use an easily measured gene product as a stand-in for the process of interest.)

For series [14], the system named is CHO-K1. As to the kind of experiment: Cytotoxicity against CHOK1 cells. Conditions: Cricetulus griseus. In kind it is cell-based.
Series [15] deals with T4, Glucose-dependent insulinotropic receptor (Homo sapiens) (UniProt Q8TDV5).
T4 sequence (whole entry): T3 sequence (Q8TDV5 whole entry)
Briefly: Activation of human GPR119 expressed in CHOK1 cells co-expressing CRE-luciferase at 1 uM after 6 hrs by luciferase reporter gene assay relative to GSK1292263. In kind it is functional, cell-based.

Series [16] deals with Vero. Briefly: Cytotoxicity against African green monkey Vero cells. The class given is cell-based. Conditions: Chlorocebus sabaeus.

hERG (KCNH2), sequence (Q12809 whole entry): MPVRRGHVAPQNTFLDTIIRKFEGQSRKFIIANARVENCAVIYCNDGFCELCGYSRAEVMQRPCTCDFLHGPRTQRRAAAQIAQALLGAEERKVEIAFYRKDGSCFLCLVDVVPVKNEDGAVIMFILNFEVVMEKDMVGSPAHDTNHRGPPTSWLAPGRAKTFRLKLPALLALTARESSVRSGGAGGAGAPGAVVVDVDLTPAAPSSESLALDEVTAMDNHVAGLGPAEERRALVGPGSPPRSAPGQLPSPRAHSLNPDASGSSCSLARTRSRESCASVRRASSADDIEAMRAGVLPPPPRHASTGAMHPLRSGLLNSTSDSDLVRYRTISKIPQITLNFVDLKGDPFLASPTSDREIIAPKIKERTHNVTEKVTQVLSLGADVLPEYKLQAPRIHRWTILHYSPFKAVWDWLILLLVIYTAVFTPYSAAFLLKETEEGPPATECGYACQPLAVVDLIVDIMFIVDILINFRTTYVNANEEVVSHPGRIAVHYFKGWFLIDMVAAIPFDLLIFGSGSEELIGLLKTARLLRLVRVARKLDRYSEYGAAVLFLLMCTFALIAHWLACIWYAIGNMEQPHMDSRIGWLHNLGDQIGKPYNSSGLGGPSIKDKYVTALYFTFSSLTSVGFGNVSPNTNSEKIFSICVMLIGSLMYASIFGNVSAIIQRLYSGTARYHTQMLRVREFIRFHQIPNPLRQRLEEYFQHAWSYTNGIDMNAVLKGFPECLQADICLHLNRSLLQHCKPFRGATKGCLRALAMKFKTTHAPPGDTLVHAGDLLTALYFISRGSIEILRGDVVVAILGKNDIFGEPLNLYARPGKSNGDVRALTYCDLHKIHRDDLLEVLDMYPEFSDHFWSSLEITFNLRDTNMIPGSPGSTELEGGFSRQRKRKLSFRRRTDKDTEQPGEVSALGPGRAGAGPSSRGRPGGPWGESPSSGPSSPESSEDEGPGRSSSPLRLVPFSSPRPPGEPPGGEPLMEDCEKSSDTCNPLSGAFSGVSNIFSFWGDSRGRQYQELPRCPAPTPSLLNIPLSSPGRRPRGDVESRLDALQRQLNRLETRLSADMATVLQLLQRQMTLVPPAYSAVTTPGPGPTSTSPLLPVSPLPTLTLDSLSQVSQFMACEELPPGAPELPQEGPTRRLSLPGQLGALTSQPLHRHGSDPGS
Cytochrome P450 3A4, sequence (P08684 whole entry): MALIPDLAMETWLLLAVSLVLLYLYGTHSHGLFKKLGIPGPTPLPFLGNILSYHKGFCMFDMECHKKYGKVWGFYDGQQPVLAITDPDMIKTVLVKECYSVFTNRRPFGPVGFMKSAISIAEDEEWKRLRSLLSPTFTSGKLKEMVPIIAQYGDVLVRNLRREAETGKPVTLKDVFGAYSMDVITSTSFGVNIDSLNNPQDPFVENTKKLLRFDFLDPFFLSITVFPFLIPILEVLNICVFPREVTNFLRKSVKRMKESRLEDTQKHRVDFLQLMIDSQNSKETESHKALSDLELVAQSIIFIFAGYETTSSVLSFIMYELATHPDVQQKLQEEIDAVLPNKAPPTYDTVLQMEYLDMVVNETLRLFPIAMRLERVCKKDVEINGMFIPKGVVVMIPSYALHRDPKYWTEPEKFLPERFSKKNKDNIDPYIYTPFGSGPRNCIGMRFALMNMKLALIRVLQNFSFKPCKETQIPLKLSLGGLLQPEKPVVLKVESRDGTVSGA
Cytochrome P450 2D6, sequence (P10635 whole entry): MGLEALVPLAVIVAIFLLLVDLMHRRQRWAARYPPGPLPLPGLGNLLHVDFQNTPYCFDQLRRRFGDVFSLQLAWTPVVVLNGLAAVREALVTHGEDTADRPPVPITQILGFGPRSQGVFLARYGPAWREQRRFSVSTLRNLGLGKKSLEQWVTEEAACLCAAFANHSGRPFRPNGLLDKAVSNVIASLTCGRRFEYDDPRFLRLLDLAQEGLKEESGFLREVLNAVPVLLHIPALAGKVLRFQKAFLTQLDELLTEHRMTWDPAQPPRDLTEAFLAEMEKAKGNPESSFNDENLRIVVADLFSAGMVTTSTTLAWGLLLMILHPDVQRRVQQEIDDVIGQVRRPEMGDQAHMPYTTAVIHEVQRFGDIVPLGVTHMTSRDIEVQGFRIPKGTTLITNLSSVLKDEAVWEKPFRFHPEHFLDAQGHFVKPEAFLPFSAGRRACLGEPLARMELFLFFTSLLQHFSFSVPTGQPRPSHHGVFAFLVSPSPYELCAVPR
Cytochrome P450 2C19, sequence (P33261 whole entry): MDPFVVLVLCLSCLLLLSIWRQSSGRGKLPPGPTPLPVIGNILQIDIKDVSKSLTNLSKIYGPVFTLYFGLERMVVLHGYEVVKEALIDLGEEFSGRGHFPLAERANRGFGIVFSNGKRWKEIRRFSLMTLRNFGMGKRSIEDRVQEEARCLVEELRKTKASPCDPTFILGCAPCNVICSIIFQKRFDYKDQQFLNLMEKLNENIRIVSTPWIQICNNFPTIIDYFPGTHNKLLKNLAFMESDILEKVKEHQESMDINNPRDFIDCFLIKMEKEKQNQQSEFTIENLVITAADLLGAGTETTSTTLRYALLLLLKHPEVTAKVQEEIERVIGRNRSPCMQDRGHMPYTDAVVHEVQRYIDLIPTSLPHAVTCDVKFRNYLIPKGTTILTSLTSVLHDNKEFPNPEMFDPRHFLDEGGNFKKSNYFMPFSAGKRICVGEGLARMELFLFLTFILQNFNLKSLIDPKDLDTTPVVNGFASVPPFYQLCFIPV

With `CCc1cnc(N2CCC(c3nc(COc4ccc(-n5cnnn5)cc4)cs3)CC2)nc1` [MBX-2982], the INH was above 100 µM in series [1]; 2.24 µM in series [3]; above 100 µM in [5]; 3.53 µM in [7]; above 100 µM in series [12]. Moreover, the results for the remaining at 0.5 h in [2] and in series [6] were 20.6% and 7.8%, respectively. For the same compound, in [4], the result was Active. For the same compound, the IC50 in series [8], in series [9], in series [10], in [14] and in series [16] was above 100 µM throughout. This compound also came in with an inhibition at 10 µM in [11] of 10.5%. In series [13], this compound gave an EC50 of 0.087 µM. The compound also returned an Activity in series [15] of 91%.

Source of the values: ChEMBL document CHEMBL4177668, “Synthesis and biological evaluation of thiazole derivatives as GPR119 agonists” (Bioorg Med Chem Lett, 2017).
